Literature values in patent publication US11369617B2, “Prostacyclin analogue formulations” (CAMURUS AB, priority 2016, dated 2022).

Details: regular s.c. administration

CCCCC[C@H](O)CC[C@@H]1[C@H]2Cc3cccc(OCC(=O)O)c3C[C@H]2C[C@H]1O [treprostinil]
administration-site pain, patients experiencing it: 85 % of patients
withdrawals due to adverse events (almost all due to site pain): 23 % of the long-term study population
